Laboratory results taken from patent publication EP4806898A1, “HETEROARYL DERIVATIVE COMPOUND AND USE THEREOF” (Voronoi Inc., priority 2023, dated 2025).

What was measured:
UWB1.289 cells = assay: Cell proliferation inhibitory activity in BRCA1/2-mutant or HRD-positive cells (Cell Titer-Glo); format: cell-based; settings: UWB1289; UWB1.289 cells, 144 hours after compound treatment, Cell Titer-Glo, 1.5 nM to 10 µM; read-out: GI50 UWB1.289 BRCA1 mut
Procedure, shortened: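 UWB1.289 cells (1,000/well) in 50% MEBM/50% RPMI1640 exposed to […], final 1.5 nM to 10 µM, for 144 h at 37 °C. Viable cells measured by CellTiter-Glo luminescence; GI50 calculated.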

recombinant USP1 protein = biological target: T1, recombinant USP1 protein (Homo sapiens, UniProt O94782, DEL125-138/DEL229-408/DEL608-737); assay: Binding affinity to recombinant USP1 protein by differential scanning fluorimetry; settings: compound 100 µM; 0.03 mg/mL USP1 (Δ1-66, Δ125-138, Δ229-408, Δ608-737); Tm with compound minus Tm with DMSO; read-out: ΔTm (°C)
T1 sequence (O94782 with tags, fused parts or gaps DEL125-138/DEL229-408/DEL608-737): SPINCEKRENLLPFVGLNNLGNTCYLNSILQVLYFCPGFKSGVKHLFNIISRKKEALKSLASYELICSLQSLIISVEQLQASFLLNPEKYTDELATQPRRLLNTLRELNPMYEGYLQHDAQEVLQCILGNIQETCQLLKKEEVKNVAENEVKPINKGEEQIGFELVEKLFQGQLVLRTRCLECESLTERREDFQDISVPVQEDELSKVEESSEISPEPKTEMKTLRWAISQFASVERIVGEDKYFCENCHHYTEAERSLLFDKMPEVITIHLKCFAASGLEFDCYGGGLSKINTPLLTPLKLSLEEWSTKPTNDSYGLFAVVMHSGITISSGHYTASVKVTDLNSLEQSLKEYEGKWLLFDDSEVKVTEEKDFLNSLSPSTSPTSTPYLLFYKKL
Procedure, shortened: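 USP1 (Δ1-66, Δ125-138, Δ229-408, Δ608-737) at 0.03 mg/mL with dye in 50 mM Tris-HCl pH 8.0, 150 mM NaCl, 2% glycerol, 1 mM DTT; compounds at 100 µM final. Tm read on real-time PCR instrument; ΔTm = Tm with compound minus Tm with DMSO.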

Row | Compound | GI50 (UWB1.289 cells) | ΔTm at 100 µM (recombinant USP1 protein)
1 | CNC(=O)c1cc2cnc(-c3c(OC)ncnc3C3CC3)nc2n1Cc1ccc(-c2nc(C(F)(F)F)cn2C)c(OC)c1 [Example 194, 2-(4-cyclopropyl-6-methoxypyrimidin-5-yl)-7-(3-methoxy-4-(1-methyl-4-(trifluoromethyl)-1H-imidazol-2-yl)benzyl)-N-methyl-7H-pyrrolo[2,3-d]pyrimidine-6-carboxamide] | 100 to 500 nM | > 5 °C
2 | [2H]C([2H])([2H])N(C(=O)c1cc2cnc(-c3c(OC)ncnc3C3CC3)nc2n1Cc1ccc(-c2nc(C(F)(F)F)cn2C)cc1)C([2H])([2H])[2H] [Example 195, 2-(4-cyclopropyl-6-methoxypyrimidin-5-yl)-N,N-bis(methyl-d3)-7-(4-(1-methyl-4-(trifluoromethyl)-1H-imidazol-2-yl)benzyl)-7H-pyrrolo[2,3-d]pyrimidine-6-carboxamide] | 100 to 500 nM | > 5 °C
3 | COc1ncnc(C2CC2)c1-c1ncc2cc(C(=O)N3CC(O)C3)n(Cc3ccc(-c4nc(C(F)(F)F)cn4C)cc3)c2n1 [Example 196, (2-(4-cyclopropyl-6-methoxypyrimid in-5-yl)-7-(4-(1-methyl-4-(trifluoromethyl)-1H-imidazol-2-yl)benzyl)-7H-pyrrolo[2,3-d]pyrimidin-6-yl) (3-hydroxyazetidi n-1-yl)methanone] | < 100 nM | > 5 °C
4 | COc1ncnc(C2CC2)c1-c1ncc2cc(C(=O)NC(C)(C)CO)n(Cc3ccc(-c4nc(C(F)(F)F)cn4C)cc3)c2n1 [Example 197, 2-(4-cyclopropyl-6-methoxypyrimidin-5-yl)-N-(1-hydroxy-2-methylpropan-2-yl)-7-(4-(1-methyl-4-(trifluoromethyl)-1H-imidazol-2-yl)benzyl)-7H-pyrrolo[2,3-d]pyrimidine-6-carboxamide] | < 100 nM | > 5 °C
5 | CNC(=O)c1cc2cnc(-c3c(OC)ncnc3C3CC3)nc2n1Cc1ccc(-n2nc(C(F)(F)F)cc2-c2ccco2)cc1 [Example 198, 2-(4-cyclopropyl-6-methoxypyrimidin-5-yl)-7-(4-(5-(furan-2-yl)-3-(trifluoromethyl)-1H-pyrazol-1-yl)benzyl)-N-methyl-7H-pyrrolo[2,3-d]pyrimidine-6-carboxamide] | 100 to 500 nM | > 5 °C
6 | COc1ncnc(C2CC2)c1-c1ncc2cc(C(=O)N[C@@H]3CCN(C)[C@H](C)C3)n(Cc3ccc(-c4nc(C(F)(F)F)cn4C)cc3)c2n1 [Example 199, 2-(4-cyclopropyl-6-methoxypyrimidin-5-yl)-N-((2R,4R)-1,2-dimethylpiperidin-4-yl)-7-(4-(1-methyl-4-(trifluoromethyl)-1H-imidazol-2-yl)benzyl)-7H-pyrrolo[2,3-d]pyrimidine-6-carboxamide] | < 100 nM | > 5 °C
7 | CNC(=O)c1cc2cnc(-c3c(OC)ncnc3C3CC3)nc2n1Cc1ccc(-c2nc(C(F)(F)F)c3n2CCCC3)cc1 [Example 200, 2-(4-cyclopropyl-6-methoxypyrimidin-5-yl)-N-methyl-7-(4-(1-(trifluoromethyl) -5,6,7,8-tetrahydroimidazo[1,5-a]pyridin-3-yl)benzyl)-7H-pyrrolo[2,3-d]pyrimidine-6-carboxamide] | < 100 nM | > 5 °C
8 | COc1ncnc(C2CC2)c1-c1ncc2cc(C(=O)N[C@H]3CCN(C)[C@H](C)C3)n(Cc3ccc(-c4nc(C(F)(F)F)cn4C)cc3)c2n1 [Example 201, 2-(4-cyclopropyl-6-methoxypyrimidin-5-yl)-N-((2R,4S)-1,2-dimethylpiperidin-4-yl)-7-(4-(1-methyl-4-(trifluoromethyl)-1H-imidazol-2-yl)benzyl)-7H-pyrrolo[2,3-d]pyrimidine-6-carboxamide] | < 100 nM | > 5 °C
9 | COc1ncnc(C2CC2)c1-c1ncc2cc(C(=O)N[C@H]3CCN(C)CC3(F)F)n(Cc3ccc(-c4nc(C(F)(F)F)cn4C)cc3)c2n1 [Example 202, (S)-2-(4-cyclopropyl-6-methoxypyrimidin-5-yl)-N-(3,3-difluoro-1-methylpiperidin-4-yl)-7-(4-(1-methyl-4-(trifluoromethyl)-1H-imidazol-2-yl)benzyl)-7H-pyrrolo[2,3-d]pyrimidine-6-carboxamide] | < 100 nM | > 5 °C
10 | CNC1CN(C(=O)c2cc3cnc(-c4c(OC)ncnc4C4CC4)nc3n2Cc2ccc(-c3nc(C(F)(F)F)cn3C)cc2)C1 [Example 203, (2-(4-cyclopropyl-6-methoxypyrimid in-5-yl)-7-(4-(1-methyl-4-(trifluoromethyl)-1H-imidazol-2-yl)benzyl)-7H-pyrrolo[2,3-d]pyrimidin-6-yl) (3-(methylamino)azetidin-1-yl)methanone] | < 100 nM | > 5 °C
11 | COc1ncnc(C2CC2)c1-c1ncc2cc(C(=O)N(C)C)n(Cc3ccc(-c4nc(C(F)(F)F)cn4C)cc3)c2n1 [Example 204, 2-(4-cyclopropyl-6-methoxypyrimidin-5-yl)-N,N-dimethyl-7-(4-(1-methyl-4-(trifluoromethyl)-1H-imidazol-2-yl)benzyl)-7H-pyrrolo[2,3-d]pyrimidine-6-carboxamide] | < 100 nM | > 5 °C
12 | COc1ncnc(C2CC2)c1-c1ncc2cc(C(=O)NCC(C)(C)O)n(Cc3ccc(-c4nc(C(F)(F)F)cn4C)cc3)c2n1 [Example 205, 2-(4-cyclopropyl-6-methoxypyrimidin-5-yl)-N-(2-hydroxy-2-methylpropyl)-7-(4-(1-methyl-4-(trifluoromethyl)-1H-imidazol-2-yl)benzyl)-7H-pyrrolo[2,3-d]pyrimidine-6-carboxamide] | < 100 nM | > 5 °C
13 | COc1ncnc(C2CC2)c1-c1ncc2cc(C(=O)N[C@@H]3CCN(C)CC3(F)F)n(Cc3ccc(-c4nc(C(F)(F)F)cn4C)cc3)c2n1 [Example 207, (R) -2-(4-cyclopropyl-6-methoxypyrimidin-5-yl)-N-(3,3-difluoro-1-methylpiperidin-4-yl)-7-(4-(1-methyl-4-(trifluoromethyl)-1H-imidazol-2-yl)benzyl)-7H-pyrrolo[2,3-d]pyrimidine-6-carboxamide] | < 100 nM | > 5 °C
14 | CNC(=O)c1cc2cnc(-c3c(OC)ncnc3C3CC3)nc2n1Cc1ccc(-c2nc(C(F)(F)F)c3ccccn23)cc1 [Example 208, 2-(4-cyclopropyl-6-methoxypyrimidin-5-yl)-N-methyl-7-(4-(1-(trifluoromethyl)imidazol[1,5-a]pyridin-3-yl)benzyl)-7H-pyrrolo[2,3-d]pyrimidine-6-carboxamide] | < 100 nM | > 5 °C
15 | CNC(=O)c1cc2cnc(-c3c(OC)ncnc3C3CC3)nc2n1Cc1ccc(-c2cc(C)ccn2)cc1 [Example 209, 2-(4-cyclopropyl-6-methoxypyrimidin-5-yl)-N-methyl-7-(4-(4-methylpyridin-2-yl)benzyl)-7H-pyrrolo[2,3-d]pyrimidine-6-carboxamide] | < 100 nM | > 5 °C
16 | COc1ncnc(C2CC2)c1-c1ncc2cc(C(=O)N(C)CSC)n(Cc3ccc(-c4nc(C(F)(F)F)cn4C)cc3)c2n1 [Example 210, 2-(4-cyclopropyl-6-methoxypyrimidin-5-yl)-N-methyl-7-(4-(1-methyl-4-(trifluoromethyl)-1H-imidazol-2-yl)benzyl)-N-((methylthio)methyl)-7H-pyrrolo[2,3-d]pyrimidine-6-carboxamide] | < 100 nM | > 5 °C
17 | COc1ncnc(C2CC2)c1-c1ncc2cc(C(=O)N[C@H]3CN(C(C)C)C[C@H]3F)n(Cc3ccc(-c4nc(C(F)(F)F)cn4C)cc3)c2n1 [Example 211, 2-(4-cyclopropyl-6-methoxypyrimidin-5-yl)-N-((3S,4R)-4-fluoro-1-isopropylpyrrolidin-3-yl)-7-(4-(1-methyl-4-(trifluoromethyl)-1H-imidazol-2-yl)benzyl)-7H-pyrrolo[2,3-d]pyrimidine-6-carboxamide] | < 100 nM | > 5 °C
18 | COc1ncnc(C2CC2)c1-c1ncc2cc(C(=O)N[C@H]3CN(C4COC4)C[C@H]3F)n(Cc3ccc(-c4nc(C(F)(F)F)cn4C)cc3)c2n1 [Example 212, 2-(4-cyclopropyl-6-methoxypyrimidin-5-yl)-N-((3S,4R)-4-fluoro-1-(oxetan-3-yl)pyrrolidin-3-yl)-7-(4-(1-methyl-4-(trifluoromethyl)-1H-imidazol-2-yl)benzyl)-7H-pyrrolo [2,3-d]pyrimidine-6-carboxamide] | < 100 nM | > 5 °C
19 | CNC(=O)c1cc2cnc(-c3c(OC)ncnc3C3CC3)nc2n1Cc1ccc(-c2nc(C(F)(F)F)c(OC)n2C)cc1 [Example 214, 2-(4-cyclopropyl-6-methoxypyrimidin-5-yl)-7-(4-(5-methoxy-1-methyl-4-(trifluoromethyl)-1H-imidazol-2-yl)benzyl)-N-methyl-7H-pyrrolo[2,3-d]pyrimidine-6-carboxamide] | < 100 nM | > 5 °C
